According to US10633416B2 (BGI SHENZHEN CO., LIMITED, priority 2014, dated 2020):

System: potassium ion channel current of the DRG neurons
Assay type: cell-based, SD rats
Details: 5 mM

`Nc1ccncc1` [4AP, 4-aminopyridine] was tested. Which Current inhibition rate did it give?
Its Current inhibition rate is 0.338.

What about the “Current recorded after loading” value of the same compound?
The value was 0.9766 nA.
